Where no end group is shown, it is not given here.
System: NCI-H522 cells (POTE+/HLA-A2)
Assay: CTL cytotoxicity against human cancer cells
Type: cell-based
Conditions: HHD-2 mice immunized with 50 nmol peptide, restimulated 7 days with 1000 nM peptide; POTE-expressing NCI-H522 human lung cancer cells
Procedure: FIGS. 8A-8B are graphs showing anti-tumor cytotoxicity induced by enhanced POTE epitopes. AAD mice were immunized s.c. with 50 nmol of peptide in 100 μl of emulsion. (FIG. 8A) Anti-tumor cytotoxicity against a POTE-expressing human lung cancer cell line NCI-H522 induced by POTE 553-1Y, 323-3F and 252-9V. HHD-2 mice were immunized with 50 nmol of peptide in 100 μl of emulsion and restimulated for 7 days with 1000 nM peptide before being tested for ability to lyse the tumor cells. (FIG. 8B) Summary of the anti-tumor cytotoxicity in POTE-expressing and non-POTE-expressing human tumor cells. NCI-H522 is a human lung cancer line expressing both POTE and HLA-A2, whereas HTB-19 is a human mammary carcinoma that expresses POTE but not HLA-A2, and MDA-MB-231 is a human mammary carcinoma cell line expressing HLA-A2 but not POTE.
AAD or HHD-2 mice were immunized subcutaneously (s.c.) in the base of the tail with 100 μl of an emulsion containing 1:1 incomplete Freund's adjuvant (Sigma) and PBS with peptides and cytokines (50 nmol of CTL epitope, 50 nmol of hepatitis B virus core 128-140 helper epitope, 5 μg of mouse interleukin-12, and 5 μg of mouse granulocyte macrophage colony-stimulating factor). Cytokines were purchased from Peprotech (Rocky Hill, N.J.). Mice were boosted 2 weeks later, and the spleens were removed 2 weeks after the boost. For all experiments, groups of three mice were used.
Splenocytes from the immunized mice were re-stimulated with peptide-loaded splenocytes (1 μM, or 10 nM). On day 1 and day 5, rat T STIM™ (BD Bioscience) was added as a source of IL-2. One week later, CTL activity was measured by using a 4-hour ^51Cr releasing assay. […] The percentage of specific ^51Cr release is calculated as 100× [(experimental release-spontaneous release)/(maximum release-spontaneous release)]. Spontaneous release is determined from target cells incubated without effector cells, and maximum release is determined in the presence of 5% triton-X. C1R.AAD or C1R.A2.1 cell lines were used as targets. […]

Sequence	anti-tumor cytotoxicity of peptide-induced CTLs
KLMAKALLV [POTE 252-9V]	did not kill POTE-expressing cancer cells
LLFEQNVDV [POTE 323-3F]	produced significant cytotoxicity to lyse NCI-H522 cells
YILEEIESV [POTE 553-1Y]	produced significant cytotoxicity to lyse NCI-H522 cells

From US9394352B2, “Immunogenic POTE peptides and methods of use” (The United States of America, as represented by the …, priority 2010, dated 2016)
